Data: PubChem BioAssay AID1845213 (Molecular Pharmacology Branch, DTP, NCI, 2023)

Tested on: NCI-H841 complex tumor spheroid viability
Experiment: Anticancer human tumor NCI-H841 cell line growth inhibition;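 further: spheroids exposed to compounds for 7 days before readout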;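 on viability, T/C: 100% = DMSO vehicle control wells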
Conditions: for IC50: curve of first compound; for viability, T/C: stronger effect = lower value
Method in brief: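 Complex spheroids of malignant cells with endothelial cells and mesenchymal stem cells; agents alone or combined, from near clinical Cmax (or 10 microM if unknown) down in half-log steps, 0.25% DMSO final.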

[1] = second compound 30 pM, first compound 0.00949 µM
[2] = second compound 30 pM, first compound 0.03 µM
[3] = second compound 30 pM, first compound 0.0949 µM
[4] = second compound 30 pM, first compound 0.3 µM
[5] = second compound 30 pM, first compound 0.949 µM
[6] = second compound 30 pM, first compound 3 µM
[7] = second compound 94.9 pM, first compound 0.00949 µM
[8] = second compound 94.9 pM, first compound 0.03 µM
[9] = second compound 94.9 pM, first compound 0.0949 µM
[10] = second compound 94.9 pM, first compound 0.3 µM
[11] = second compound 94.9 pM, first compound 0.949 µM
[12] = second compound 94.9 pM, first compound 3 µM
[13] = second compound 0.0003 µM, first compound 0.00949 µM
[14] = second compound 0.0003 µM, first compound 0.03 µM
[15] = second compound 0.0003 µM, first compound 0.0949 µM
[16] = second compound 0.0003 µM, first compound 0.3 µM
[17] = second compound 0.0003 µM, first compound 0.949 µM
[18] = second compound 0.0003 µM, first compound 3 µM
[19] = second compound 0.000949 µM, first compound 0.00949 µM
[20] = second compound 0.000949 µM, first compound 0.03 µM
[21] = second compound 0.000949 µM, first compound 0.0949 µM
[22] = second compound 0.000949 µM, first compound 0.3 µM
[23] = second compound 0.000949 µM, first compound 0.949 µM
[24] = second compound 0.000949 µM, first compound 3 µM
[25] = second compound 0.003 µM, first compound 0.00949 µM
[26] = second compound 0.003 µM, first compound 0.03 µM
[27] = second compound 0.003 µM, first compound 0.0949 µM
[28] = second compound 0.003 µM, first compound 0.3 µM
[29] = second compound 0.003 µM, first compound 0.949 µM
[30] = second compound 0.003 µM, first compound 3 µM
[31] = second compound 30 pM, first compound 0.0316 µM
[32] = second compound 30 pM, first compound 0.1 µM
[33] = second compound 30 pM, first compound 0.316 µM
[34] = second compound 30 pM, first compound 1 µM
[35] = second compound 30 pM, first compound 3.16 µM
[36] = second compound 30 pM, first compound 10 µM
[37] = second compound 94.9 pM, first compound 0.0316 µM
[38] = second compound 94.9 pM, first compound 0.1 µM
[39] = second compound 94.9 pM, first compound 0.316 µM
[40] = second compound 94.9 pM, first compound 1 µM
[41] = second compound 94.9 pM, first compound 3.16 µM
[42] = second compound 94.9 pM, first compound 10 µM
[43] = second compound 0.0003 µM, first compound 0.0316 µM
[44] = second compound 0.0003 µM, first compound 0.1 µM
[45] = second compound 0.0003 µM, first compound 0.316 µM
[46] = second compound 0.0003 µM, first compound 1 µM
[47] = second compound 0.0003 µM, first compound 3.16 µM
[48] = second compound 0.0003 µM, first compound 10 µM
[49] = second compound 0.000949 µM, first compound 0.0316 µM
[50] = second compound 0.000949 µM, first compound 0.1 µM
[51] = second compound 0.000949 µM, first compound 0.316 µM
[52] = second compound 0.000949 µM, first compound 1 µM
[53] = second compound 0.000949 µM, first compound 3.16 µM
[54] = second compound 0.000949 µM, first compound 10 µM
[55] = second compound 0.003 µM, first compound 0.0316 µM
[56] = second compound 0.003 µM, first compound 0.1 µM
[57] = second compound 0.003 µM, first compound 0.316 µM
[58] = second compound 0.003 µM, first compound 1 µM
[59] = second compound 0.003 µM, first compound 3.16 µM
[60] = second compound 0.003 µM, first compound 10 µM

CNCc1ccc(-c2cc(-c3nc(-c4ccc(S(=O)(=O)C(C)C)cc4)cnc3N)on2)cc1 + COc1cc2c(cc1O)CCNC21CSC2c3c(OC(C)=O)c(C)c4c(c3C(COC1=O)N1C(O)C3Cc5cc(C)c(OC)c(O)c5C(C21)N3C)OCO4 showed an IC50 (second compound 30 pM) of 205 nM, an IC50 (second compound 94.9 pM) of 136 nM and an IC50 (second compound 0.0003 µM) of under 9.49 nM. For the same compound, the IC50 (second compound 0.000949 µM) was under 9.49 nM, the IC50 (second compound 0.003 µM) was under 9.49 nM and the viability, T/C [1] was 97.6%. For the same compound, the viability, T/C [2] was 99.6%, the viability, T/C [3] was 86.8% and the viability, T/C [4] was 31.6%. The viability, T/C [5] was 7.14%, the viability, T/C [6] was 1.78% and the viability, T/C [7] was 93.8%. It also gave a viability, T/C [8] of 92.6%, a viability, T/C [9] of 66.2% and a viability, T/C [10] of 13.6%. The viability, T/C [11] was 2.49%, the viability, T/C [12] was 1.05% and the viability, T/C [13] was 44.8%. The viability, T/C [14] was 28.3%, the viability, T/C [15] was 7.38% and the viability, T/C [16] was 1.78%. It also gave a viability, T/C [17] of 1.69%, a viability, T/C [18] of 0.41% and a viability, T/C [19] of 2.86%. The viability, T/C [20] was 2.26%, the viability, T/C [21] was 1.25% and the viability, T/C [22] was 0.59%. The viability, T/C [23] was 0.5%, the viability, T/C [24] was 0.09% and the viability, T/C [25] was 0.1%. The viability, T/C [26] was 0.1%, the viability, T/C [27] was 0.09% and the viability, T/C [28] was 0.1%. For the same compound, the viability, T/C [29] was 0.09% and the viability, T/C [30] was 0.15%.

Compound Cc1cc(C)c(CNC(=O)c2cc(-c3ccc(CN4CCOCC4)cc3)cc3c2cnn3C2CCCC2)c(=O)[nH]1 + COc1cc2c(cc1O)CCNC21CSC2c3c(OC(C)=O)c(C)c4c(c3C(COC1=O)N1C(O)C3Cc5cc(C)c(OC)c(O)c5C(C21)N3C)OCO4 has an IC50 (second compound 30 pM) of over 10000 nM, an IC50 (second compound 94.9 pM) of over 10000 nM and an IC50 (second compound 0.0003 µM) of under 31.6 nM. For the same compound, the IC50 (second compound 0.000949 µM) was under 31.6 nM, the IC50 (second compound 0.003 µM) was under 31.6 nM and the viability, T/C [31] was 99.7%. It also gave a viability, T/C [32] of 102%, a viability, T/C [33] of 104% and a viability, T/C [34] of 95.4%. For the same compound, the viability, T/C [35] was 87%, the viability, T/C [36] was 65% and the viability, T/C [37] was 99.5%. For the same compound, the viability, T/C [38] was 99.7%, the viability, T/C [39] was 97% and the viability, T/C [40] was 89.5%. For the same compound, the viability, T/C [41] was 84.7%, the viability, T/C [42] was 57% and the viability, T/C [43] was 38.6%. It also gave a viability, T/C [44] of 44%, a viability, T/C [45] of 46.7% and a viability, T/C [46] of 32.2%. It also gave a viability, T/C [47] of 25.2%, a viability, T/C [48] of 7.36% and a viability, T/C [49] of 2.45%. The viability, T/C [50] was 2.86%, the viability, T/C [51] was 3.65% and the viability, T/C [52] was 2.33%. The viability, T/C [53] was 2.54%, the viability, T/C [54] was 1.15% and the viability, T/C [55] was 0.26%. For the same compound, the viability, T/C [56] was 0.12%, the viability, T/C [57] was 0.11% and the viability, T/C [58] was 0.11%. For the same compound, the viability, T/C [59] was 0.13% and the viability, T/C [60] was 0.19%.

In the case of Cc1sc2c(c1C)C(c1ccc(Cl)cc1)=NC(CC(=O)Nc1ccc(O)cc1)c1nnc(C)n1-2 (stereo not given) + COc1cc2c(cc1O)CCNC21CSC2c3c(OC(C)=O)c(C)c4c(c3C(COC1=O)N1C(O)C3Cc5cc(C)c(OC)c(O)c5C(C21)N3C)OCO4, the IC50 (second compound 30 pM) is reported as 515 nM, the IC50 (second compound 94.9 pM) is reported as 291 nM and the IC50 (second compound 0.0003 µM) is reported as under 9.49 nM. It also gave an IC50 (second compound 0.000949 µM) of under 9.49 nM, an IC50 (second compound 0.003 µM) of under 9.49 nM and a viability, T/C [1] of 101%. It also gave a viability, T/C [2] of 99.2%, a viability, T/C [3] of 93.3% and a viability, T/C [4] of 69.2%. For the same compound, the viability, T/C [5] was 28.3%, the viability, T/C [6] was 5.97% and the viability, T/C [7] was 99.5%. The viability, T/C [8] was 91.6%, the viability, T/C [9] was 74.9% and the viability, T/C [10] was 53.9%. The viability, T/C [11] was 14.4%, the viability, T/C [12] was 2.65% and the viability, T/C [13] was 37.6%. For the same compound, the viability, T/C [14] was 20.6%, the viability, T/C [15] was 15.6% and the viability, T/C [16] was 5.26%. The viability, T/C [17] was 2.59%, the viability, T/C [18] was 1.68% and the viability, T/C [19] was 2.84%. It also gave a viability, T/C [20] of 2.9%, a viability, T/C [21] of 2.06% and a viability, T/C [22] of 0.99%. It also gave a viability, T/C [23] of 0.03%, a viability, T/C [24] of 0.1% and a viability, T/C [25] of 0.12%. The viability, T/C [26] was 0.12%, the viability, T/C [27] was 0.12% and the viability, T/C [28] was 0.1%. It also gave a viability, T/C [29] of 0.12% and a viability, T/C [30] of 0.2%.

[2H]c1nc(C)nc([2H])c1-c1cc(NC[C@@H](C)c2cccc3c(C(=O)NC)ccnc23)ncn1 + COc1cc2c(cc1O)CCNC21CSC2c3c(OC(C)=O)c(C)c4c(c3C(COC1=O)N1C(O)C3Cc5cc(C)c(OC)c(O)c5C(C21)N3C)OCO4 gave an IC50 (second compound 30 pM) of over 10000 nM, an IC50 (second compound 94.9 pM) of over 10000 nM and an IC50 (second compound 0.0003 µM) of under 31.6 nM. For the same compound, the IC50 (second compound 0.000949 µM) was under 31.6 nM, the IC50 (second compound 0.003 µM) was under 31.6 nM and the viability, T/C [31] was 98.7%. It also gave a viability, T/C [32] of 101%, a viability, T/C [33] of 102% and a viability, T/C [34] of 99.4%. For the same compound, the viability, T/C [35] was 97.2%, the viability, T/C [36] was 96.2% and the viability, T/C [37] was 101%. It also gave a viability, T/C [38] of 102%, a viability, T/C [39] of 98% and a viability, T/C [40] of 96.9%. It also gave a viability, T/C [41] of 96.9%, a viability, T/C [42] of 93% and a viability, T/C [43] of 40%. It also gave a viability, T/C [44] of 47.3%, a viability, T/C [45] of 38.3% and a viability, T/C [46] of 34.7%. It also gave a viability, T/C [47] of 39.7%, a viability, T/C [48] of 20.1% and a viability, T/C [49] of 3.9%. It also gave a viability, T/C [50] of 2.99%, a viability, T/C [51] of 3.31% and a viability, T/C [52] of 3.19%. The viability, T/C [53] was 3.35%, the viability, T/C [54] was 3.46% and the viability, T/C [55] was 0.12%. It also gave a viability, T/C [56] of 0.1%, a viability, T/C [57] of 0.1% and a viability, T/C [58] of 0.1%. It also gave a viability, T/C [59] of 0.12% and a viability, T/C [60] of 0.17%.
